Counter-ions that a name gives are not always drawn.
Experiments:
Format in all cases: cell-based
MYB mRNA [1] = experiment: Splicing RT-qPCR assay, canonical (CJ) and alternative (AJ) junction mRNA, K562 cells; settings: Homo sapiens, K562.3 cells, 24 hours; for AC50: read-out: MYB AJ (AC50, increase in AJ mRNA); for IC50: read-out: MYB CJ (IC50, decrease in CJ mRNA)
Method in brief: (§1)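 Readout is one-step RT-qPCR of canonical and alternative exon junctions, housekeeper-normalized (GAPDH or GUSB), ΔΔCt against DMSO giving RQ and percentage response over set ΔCt assay windows. Compounds dosed 24 h to K562 cells, 11 points, 3-fold, max 10 uM, DMSO ≤0.25%.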

HTT mRNA [2] = experiment: as above; settings: Homo sapiens, K562.3 cells, 24 hours; for AC50: read-out: HTT AJ (AC50, increase in AJ mRNA); for IC50: read-out: HTT CJ (IC50, decrease in CJ mRNA)
Method in brief: as §1

HTT mRNA [3] = experiment: Splicing RT-qPCR assay (THP), Table 2A; settings: Table 2A (THP); for AC50: AJ mRNA increase, read-out: HTT AJ (increase in alternative junction mRNA, AC50); for IC50: CJ mRNA decrease, read-out: HTT CJ (decrease in canonical junction mRNA, IC50)
MYB mRNA [4] = experiment: Splicing RT-qPCR assay (THP), Table 2A; settings: Table 2A (THP); for AC50: AJ mRNA increase, read-out: MYB AJ (increase in alternative junction mRNA, AC50); for IC50: CJ mRNA decrease, read-out: MYB CJ (decrease in canonical junction mRNA, IC50)

IC50 (MYB mRNA [1]) [nM]	IC50 (HTT mRNA [2]) [nM]	IC50 (HTT mRNA [3]) [nM]	IC50 (MYB mRNA [4]) [nM]	Structure (SMILES)	AC50 (MYB mRNA [1]) [nM]	AC50 (HTT mRNA [2]) [µM]	AC50 (HTT mRNA [3]) [µM]	AC50 (MYB mRNA [4]) [nM]
100 to 1000	1000 to 10000	1000 to 10000	100 to 1000	Cc1cn2cc(NC(=O)c3ccc(C4CNCCO4)c4[nH]cnc34)cc(F)c2n1 (stereo not drawn) [Compound 194, N-(8-fluoro-2-methyl-imidazo[1,2-a]pyridin-6-yl)-7-morpholin-2-yl-1H-benzimidazole-4-carboxamide]	100 to 1000	1 to 10	> 10	100 to 1000
100 to 1000	100 to 1000	100 to 1000	100 to 1000	Cc1cn2cc(NC(=O)c3ccc(N4C[C@@H](C)N[C@@H](C)C4)c4nn(C)nc34)cc(F)c2n1 [Compound 252, 7-((3S,5R)-3,5-dimethyl-piperazin-1-yl)-N-(8-fluoro-2-methyl-imidazo[1,2-a]pyridin-6-yl)-2-methyl-2H-benzo[d][1,2,3]triazole-4-carboxamide 2,2,2-trifluoroacetate]	100 to 1000	0.1 to 1	1 to 10	100 to 1000
> 10000	> 10000	> 10000	> 10000	Cc1nc2c(F)cc(NC(=O)c3ccc(N4CCC(NC5CC5)CC4)c4cn(C)nc34)cn2c1C [Compound 189, 4-[4-(cyclopropylamino)-1-piperidyl]-N-(8-fluoro-2,3-dimethyl-imidazo[1,2-a]pyridin-6-yl)-2-methyl-indazole-7-carboxamide]	> 10000	> 10	0.1 to 1	> 10000
100 to 1000	1000 to 10000	1000 to 10000	100 to 1000	Cc1cn2cc(NC(=O)c3ccc(N4CCNC(C(F)F)C4)c4cn(C)nc34)cc(F)c2n1 (stereo not drawn) [Compound 249, 4-[3-(difluoromethyl)piperazin-1-yl]-N-(8-fluoro-2-methylimidazo[1,2-a]pyridin-6-yl)-2-methyl-indazole-7-carboxamide]	100 to 1000	1 to 10	> 10	100 to 1000
> 10000	> 10000	> 10000	> 10000	CCNC1CCN(c2cc(F)c(C(=O)Nc3cc(F)c4nc(C)cn4c3)c3ccoc23)CC1 [Compound 195, 7-[4-(ethylamino)-1-piperidyl]-5-fluoro-N-(8-fluoro-2-methylimidazo[1,2-a]pyridin-6-yl)-benzofuran-4-carboxamide]	> 10000	> 10	> 10	> 10000
> 10000	> 10000	> 10000	> 10000	Cc1cn2cc(NC(=O)c3ccc(N4C[C@@H](C)N[C@@H](C)C4)c4[nH]nnc34)cc(F)c2n1 [Compound 243, 7-((3S,5R)-3,5-dimethylpiperazin-1-yl)-N-(8-fluoro-2-methylimidazo[1,2-a]pyridin-6-yl)-1H-benzo[d][1,2,3]-triazole-4-carboxamide hydrochloride]	> 10000	> 10	> 10	> 10000
100 to 1000	100 to 1000	1000 to 10000	100 to 1000	Cc1cn2cc(NC(=O)c3ccc(C4CCC(NC5CC5)CC4)c4cn(C)nc34)cc(F)c2n1 (stereo not drawn) [Compound 192, 4-[4-(cyclopropylamino)cyclohexyl]-N-(8-fluoro-2-methyl-imidazo[1,2-a]pyridin-6-yl)-2-methyl-indazole-7-carboxamide]	100 to 1000	1 to 10	1 to 10	100 to 1000
1000 to 10000	> 10000	> 10000	> 10000	CN[C@@H]1CCN(c2ccc(C(=O)Nc3cc(F)c4nc(C)cn4c3)c3nn(C)cc23)[C@H]1C [Compound 155, N-(8-fluoro-2-methylimidazo-[1,2-a]pyridin-6-yl)-2-methyl-4-[(2S,3R)-2-methyl-3-(methylamino)-pyrrolidin-1-yl]indazole-7-carboxamide]	> 10000	> 10	> 10	1000 to 10000
100 to 1000	1000 to 10000	> 10000	100 to 1000	COCC1(N[C@@H]2CCN(c3ccc(C(=O)Nc4cc(F)c5nc(C)cn5c4)c4nn(C)cc34)C2)CC1 [Compound 119, (R)—N-(8-fluoro-2-methylimidazo[1,2-a]pyridin-6-yl)-4-(3-((1-(methoxymethyl)cyclopropyl)amino)-pyrrolidin-1-yl)-2-methyl-2H-indazole-7-carboxamide]	100 to 1000	> 10	> 10	100 to 1000
100 to 1000	100 to 1000	100 to 1000	100 to 1000	CCNC1CCN(c2ccc(C(=O)Nc3cc(C)c4nc(C)cn4n3)c3nn(C)cc23)CC1 [Compound 186, N-(2,8-dimethylimidazo [1,2-b]pyridazin-6-yl)-4-[4-(ethylamino)-1-piperidyl]-2-methyl-indazole-7-carboxamide]	100 to 1000	0.1 to 1	0.1 to 1	100 to 1000
< 100	100 to 1000	1000 to 10000	< 100	CCN[C@@H]1CCN(c2cc(O)c(C(=O)Nc3cc(F)c4nn(C)cc4c3)c3nn(C)cc23)C1 [Compound 294, 4-[(3R)-3-(ethylamino)-pyrrolidin-1-yl]-N-(7-fluoro-2-methyl-indazol-5-yl)-6-hydroxy-2-methyl-indazole-7-carboxamide]	< 100	1 to 10	1 to 10	< 100
100 to 1000	100 to 1000	100 to 1000	1000 to 10000	CN[C@H]1CCN(c2ccc(C(=O)Nc3cc(F)c4nc(C)cn4c3)c3nn(C)nc23)C1 [Compound 163, (S)-N-(8-fluoro-2-methylimidazo-[1,2-a]pyridin-6-yl)-2-methyl-7-(3-(methylamino)pyrrolidin-1-yl)-2H-benzo[d]-[1,2,3]triazole-4-carboxamide]	100 to 1000	0.1 to 1	1 to 10	100 to 1000
1000 to 10000	1000 to 10000	1000 to 10000	100 to 1000	Cc1cn2cc(NC(=O)c3ccc(N4C[C@@H](C)N[C@@H](C)C4)c4[nH]c(C)nc34)cc(F)c2n1 [Compound 225, 7-[(3R,5S)-3,5-dimethylpiperazin-1-yl]-N-(8-fluoro-2-methylimidazo[1,2-a]pyridin-6-yl)-2-methyl-1H-1,3-benzodiazole-4-carboxamide]	1000 to 10000	1 to 10	> 10	1000 to 10000
100 to 1000	1000 to 10000	1000 to 10000	100 to 1000	CO[C@H]1C[C@H](N[C@H]2CCN(c3ccc(C(=O)Nc4cc(F)c5nc(C)cn5c4)c4nn(C)cc34)C2)C1 [Compound 275, N-(8-fluoro-2-methylimidazo[1,2-a]pyridin-6-yl)-4-((S)-3-(((1r,3S)-3-methoxycyclobutyl)amino)pyrrolidin-1-yl)-2-methyl-2H-indazole-7-carboxamide]	100 to 1000	1 to 10	1 to 10	100 to 1000
< 100	< 100	< 100	< 100	CNC1(C)CCN(c2cc(F)c(C(=O)Nc3cn4cc(C)nc4c(F)c3OC)c3nn(C)cc23)CC1 [Compound 180, 6-fluoro-N-(8-fluoro-7-methoxy-2-methyl-imidazo[1,2-a]pyridin-6-yl)-2-methyl-4-[4-methyl-4-(methylamino)-1-piperidyl]indazole-7-carboxamide]	< 100	< 0.1	< 0.1	< 100
100 to 1000	1000 to 10000	1000 to 10000	100 to 1000	Cc1cn2cc(NC(=O)c3ccc(N4CCC(NC5CC5)CC4)c4ccoc34)cc(F)c2n1 [Compound 191, 4-[4-(cyclopropylamino)-1-piperidyl]-N-(8-fluoro-2-methyl-imidazo[1,2-a]pyridin-6-yl) benzofuran-7-carboxamide]	100 to 1000	1 to 10	1 to 10	< 100
100 to 1000	> 10000	1000 to 10000	100 to 1000	Cc1cn2cc(NC(=O)c3ccc(N4C[C@H](C)N[C@@H](C)C4)c4[nH]cnc34)cc(F)c2n1 [Compound 221, 7-[(3S,5S)-3,5-dimethylpiperazin-1-yl]-N-(8-fluoro-2-methylimidazo[1,2-a]pyridin-6-yl)-1H-1,3-benzodiazole-4-carboxamide]	100 to 1000	> 10	1 to 10	100 to 1000
> 10000	> 10000	> 10000	> 10000	Cc1cn2cc(NC(=O)c3ccc(N4C[C@@H](C)N[C@@H](C)C4)c4nnn(C)c34)cc(F)c2n1 [Compound 261, 7-[(3R,5S)-3,5-dimethylpiperazin-1-yl]-N-(8-fluoro-2-methyl-imidazo[1,2-a]pyridin-6-yl)-3-methyl-benzotriazole-4-carboxamide]	> 10000	> 10	> 10	> 10000

— patent US20260285853A1, “COMPOUNDS AND METHODS FOR MODULATING SPLICING” (REMIX THERAPEUTICS INC., priority 2023, published 2026)
